Converted amounts (≈) assume the structure as drawn.
Legend:
Format in all cases: cell-based
[1] = test system: S. aureus ATCC 33591 (methicillin-resistant); assay: broth microdilution MIC assay, S. aureus 33591; conditions: Staphylococcus aureus, ATCC33591; S. aureus 33591, methicillin-resistant; read-out: MIC, S. aureus 33591
Method in brief: (§1)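 CLSI broth microdilution in cation-supplemented Mueller-Hinton broth with 2-fold compound dilutions and an inoculum of 5×10^5 CFU/mL from log-phase cultures. Plates were incubated 16-20 h at 37 °C, and the MIC was read visually as the lowest concentration with no growth.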

[2] = test system: S. aureus USA 300; assay: broth microdilution MIC assay, S. aureus USA300; conditions: Staphylococcus aureus; S. aureus USA300 (MRSA); read-out: MIC, S. aureus USA300
Method in brief: as §1

[3] = test system: S. aureus USA 600; assay: broth microdilution MIC assay, S. aureus USA600; conditions: Staphylococcus aureus; S. aureus USA600 (MRSA); read-out: MIC, S. aureus USA600
Method in brief: as §1

[4] = test system: P. aeruginosa ATCC 27853 (wild-type/QC strain); assay: broth microdilution MIC assay, P. aeruginosa 27853; conditions: Pseudomonas aeruginosa, ATCC27853; read-out: MIC, P. aeruginosa 27853
Method in brief: as §1

[5] = test system: P. aeruginosa 35151 (hyper-permeable strain); assay: broth microdilution MIC assay, P. aeruginosa 35151; conditions: Pseudomonas aeruginosa, read-out: MIC, P. aeruginosa 35151
Method in brief: as §1

[6] = test system: P. aeruginosa ΔmexAB-OprM (an efflux pump knockout); assay: broth microdilution MIC assay, P. aeruginosa ΔmexAB-OprM; conditions: Pseudomonas aeruginosa, read-out: MIC, P. aeruginosa ΔmexAB-OprM
Method in brief: as §1

[7] = test system: P. aeruginosa Paeβ-17; assay: broth microdilution MIC assay, P. aeruginosa Paeβ-17; conditions: Pseudomonas aeruginosa, read-out: MIC, P. aeruginosa Paeβ-17
Method in brief: as §1

[8] = test system: P. aeruginosa clinical isolates; assay: expanded MIC profiling, P. aeruginosa clinical isolates; conditions: Pseudomonas aeruginosa
Protocol: (§2) To evaluate the activity of selected example compounds against clinical isolates of target species, standard cell-based broth microdilution MIC assays were employed. A panel of 20 clinical isolates of P. aeruginosa and 20 clinical isolates of Methicillin Resistant S. aureus (MRSA) from Lankenau Medical Center (Wynnewood, Pa.) were used. In the set of P. aeruginosa isolates, the compounds were also tested in combination with a β-lactamase inhibitor (taniborbactam), to evaluate the potential benefit of inhibiting β-lactamase enzymes. The assay was conducted in Cation Adjusted Mueller Hinton Broth (CAMHB, BD #212322, BD Diagnostic Systems, Sparks, Md.). Bacteria strains were grown for 3-5 hours in CAMHB. Compounds were added to a microtiter plate in 2-fold serial dilutions in CAMHB. For plates receiving β-lactamase inhibitor, taniborbactam was added to obtain a final fixed concentration of 4 μg/mL. Once the test articles were added, the plates were inoculated according to CLSI broth microdilution method. After inoculation, the plates were incubated for 16-20 hours at 37° C. then the Minimal Inhibitory Concentration (MIC) of the test compound is determined visually. Values for concentration required to inhibit growth of […] (MIC50) and 90% (MIC90) of isolates were determined.

[9] = test system: Methicillin Resistant S. aureus (MRSA) clinical isolates; assay: expanded MIC profiling, MRSA clinical isolates; conditions: Staphylococcus aureus
Protocol: as §2

[10] = panel of 20 P. aeruginosa clinical isolates
[11] = panel of S. aureus (MRSA) isolates of Table 5

C[C@@H](O)[C@H]1C(=O)N2C(C(=O)O)=C(S[C@@H]3CCN(C[C@H]4CC[C@H](NC(=N)N)CC4)C3)[C@H](C)[C@H]12 [Example 28, (4R,5S,6S)-3-(((R)-1-(((1R,4R)-4-guanidinocyclohexyl)methyl)pyrrolidin-3-yl)thio)-6-((R)-1-hydroxyethyl)-4-methyl-7-oxo-1-azabicyclo[3.2.0]hept-2-ene-2-carboxylic acid]
MIC [1]: 1 to 4 µg/mL (≈ 2.15 to 8.59 µM) | MIC [2]: 1 to 4 µg/mL (≈ 2.15 to 8.59 µM) | MIC [3]: < 1 µg/mL | MIC [4]: 1 to 4 µg/mL (≈ 2.15 to 8.59 µM) | MIC [5]: < 1 µg/mL | MIC [6]: < 1 µg/mL | MIC [7]: 8 to 32 µg/mL (≈ 17.2 to 68.7 µM) | MIC ([8]; P. aeruginosa clinical isolate Lankenau 11): 2 µg/mL | MIC ([8]; P. aeruginosa clinical isolate Lankenau 12): 0.5 µg/mL | MIC ([8]; P. aeruginosa clinical isolate Lankenau 13): 0.5 µg/mL | MIC ([8]; P. aeruginosa clinical isolate Lankenau 14): 1 µg/mL | MIC ([8]; P. aeruginosa clinical isolate Lankenau 15): 1 µg/mL | MIC ([8]; P. aeruginosa clinical isolate Lankenau 16): 1 µg/mL | MIC ([8]; P. aeruginosa clinical isolate Lankenau 17): 1 µg/mL | MIC ([8]; P. aeruginosa clinical isolate Lankenau 18): 1 µg/mL | MIC ([8]; P. aeruginosa clinical isolate Lankenau 19): 1 µg/mL | MIC ([8]; P. aeruginosa clinical isolate Lankenau 20): 1 µg/mL | MIC ([8]; P. aeruginosa clinical isolate Lankenau 21): 1 µg/mL | MIC ([8]; P. aeruginosa clinical isolate Lankenau 22): 1 µg/mL | MIC ([8]; P. aeruginosa clinical isolate Lankenau 23): 2 µg/mL | MIC ([8]; P. aeruginosa clinical isolate Lankenau 24): 2 µg/mL | MIC ([8]; P. aeruginosa clinical isolate Lankenau 25): 2 µg/mL | MIC ([8]; P. aeruginosa clinical isolate Lankenau 26): 2 µg/mL | MIC ([8]; P. aeruginosa clinical isolate Lankenau 27): 2 µg/mL | MIC ([8]; P. aeruginosa clinical isolate Lankenau 28): 8 µg/mL | MIC ([8]; P. aeruginosa clinical isolate Lankenau 29): 16 µg/mL | MIC ([8]; P. aeruginosa clinical isolate Lankenau 30): 32 µg/mL | MIC50 [8, 10]: 1 µg/mL | MIC90 [8, 10]: 8 µg/mL | MIC ([9]; ATCC 33591 / MRSA, S. aureus ATCC-33591): 2 µg/mL | MIC ([9]; MRSA, S. aureus clinical isolate LH-SA3): 0.5 µg/mL | MIC ([9]; MRSA, S. aureus clinical isolate LH-SA9): 0.5 µg/mL | MIC ([9]; MRSA, S. aureus clinical isolate LH-SA23): 0.5 µg/mL | MIC ([9]; MRSA, S. aureus clinical isolate LH-SA24): 0.5 µg/mL | MIC ([9]; MRSA, S. aureus clinical isolate LH-SA26): 0.5 µg/mL | MIC ([9]; MRSA, S. aureus clinical isolate LH-SA29): 2 µg/mL | MIC ([9]; MRSA, S. aureus clinical isolate LH-SA33): 2 µg/mL | MIC ([9]; MRSA, S. aureus clinical isolate LH-SA34): 4 µg/mL | MIC ([9]; MRSA, S. aureus clinical isolate LH-SA37): 0.25 µg/mL | MIC ([9]; MRSA, S. aureus clinical isolate LH-SA38): 4 µg/mL | MIC ([9]; MRSA, S. aureus clinical isolate LH-SA39): 2 µg/mL | MIC ([9]; MRSA, S. aureus clinical isolate LH-SA40): 2 µg/mL | MIC ([9]; MRSA, S. aureus clinical isolate LH-SA41): 2 µg/mL | MIC ([9]; MRSA, S. aureus clinical isolate LH-SA42): 0.5 µg/mL | MIC ([9]; MRSA, S. aureus clinical isolate LH-SA44): 4 µg/mL | MIC ([9]; MRSA, S. aureus clinical isolate LH-SA45): 16 µg/mL | MIC ([9]; MRSA, S. aureus clinical isolate LH-SA48): 0.5 µg/mL | MIC ([9]; MRSA, S. aureus clinical isolate LH-SA49): 0.5 µg/mL | MIC ([9]; MRSA, S. aureus clinical isolate LH-SA50): 0.5 µg/mL | MIC50 [9, 11]: 0.5 µg/mL | MIC90 [9, 11]: 4 µg/mL

From US20230127944A1, “BROAD-SPECTRUM CARBAPENEMS” (priority 2019, published 2023)
